Reference: patent US10118947B2, “Modulation of structured polypeptide specificity” (BICYCLE THERAPEUTICS LIMITED, priority 2013, dated 2018)
Where two headings read alike, the source gives them in different places. Numbered stars: 1 amine (or outer) side, 2 acyl side, 3 side chain; on linkers, the order of the positions; unused ones are H or OH. Bridge positions count the residues as written; N and C are the ends. Square brackets hold non-standard residues; d marks the D form. Peptide text beside a SMILES is read from it. Phe(4-guanidino) = N=C(N)Nc1ccc(C[C@H](N)C(=O)O)cc1; TBMB = c1c(C[*:1])cc(C[*:3])cc1C[*:2]; NMeH = CN[C@@H](Cc1c[nH]cn1)C(=O)O; NMeR = CN[C@@H](CCCNC(=N)N)C(=O)O; hArg = N=C(N)NCCCC[C@H](N)C(=O)O; NMeQ = CN[C@@H](CCC(N)=O)C(=O)O; NMeD = CN[C@@H](CC(=O)O)C(=O)O; NMeL = CN[C@@H](CC(C)C)C(=O)O; Aze = O=C(O)[C@@H]1CCN1

What was measured:
[1] = Plasma stability / fragment profiling Method #2 (MALDI-TOF, 95% plasma), human plasma; type: in vitro ADME; details: peptide fragments observed after incubation in human plasma
Procedure: To obtain stability data more rapidly, peptides were also assessed in 95% plasma. Here, PBS was omitted, and a 1 mM peptide stock (in DMSO) was directly diluted into plasma (i.e. 2.5 uL stock into 47.5 uL plasma), giving a final concentration of 50 uM. 5 uL samples were taken at appropriate time points and frozen at −80 deg C. For analysis, the samples were defrosted, mixed with 15 uL of 1:1 acetonitrile:methanol, and centrifuged at 13 k for 5 min. 5 uL of the peptide-containing supernatant was aspirated and mixed with 30 mM ammonium bicarbonate in a 1:1 mixture of acetonitrile:H2O. 1 uL of this was then spotted on the MALDI plate and analysed as described above. As above, it should be noted that this is a qualitative assay serves to detect relative changes in plasma stability.
Ac-06-34-18(TMB)-NH2 Phe2 Tyr4 (referred to as wild type peptide) was subsequently subjected to human plasma, and analysed for fragments to appear over time. This was compared to the degradation profile observed in human plasma using the NMe-Arg5 derivative of 06-34-18 (FIGS. 18a and 18b). Fragmentation was determined according to Method #2.

human plasma Kallikrein = molecular target: T1, human plasma Kallikrein (Homo sapiens, UniProt P03952); assay: Functional enzyme inhibition assay with fluorogenic substrate Z-PheArg-AMC, human plasma Kallikrein; type: biochemical; details: for Ki: read-out: Ki
T1 construct: purchased Stratech, UK
Outline: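 Rates of AMC release (excitation 360 nm, emission 460 nm) from 100 μM final Z-PheArg-AMC, 4% DMSO, were taken over the linear phase, typically 5 to 45 minutes. IC50 from four-parameter non-linear regression; Ki also derived.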

rat plasma Kallikrein = molecular target: T2, rat plasma Kallikrein (Rattus norvegicus, UniProt P14272); details: Table 1; read-out: Ki (nM) (rat kallikrein); cited from earlier work
T2 construct: polyhistidine tag (N, cleaved yes); proTEV cleavage site (pro-peptide linker) (N, cleaved yes); made in house; host or cells: HEK-293 (suspension-adapted)

[2] = Table 25a, fold change of Ki of variant compared to WT
[3] = Table 25a, α-N-methyl amino acid scan in Loop2, human plasma kallikrein
[4] = Table 3a, Alanine scan in Loop2
[5] = Table 3a, ratio of Ki to wild type

T1 sequence (P03952 20-638): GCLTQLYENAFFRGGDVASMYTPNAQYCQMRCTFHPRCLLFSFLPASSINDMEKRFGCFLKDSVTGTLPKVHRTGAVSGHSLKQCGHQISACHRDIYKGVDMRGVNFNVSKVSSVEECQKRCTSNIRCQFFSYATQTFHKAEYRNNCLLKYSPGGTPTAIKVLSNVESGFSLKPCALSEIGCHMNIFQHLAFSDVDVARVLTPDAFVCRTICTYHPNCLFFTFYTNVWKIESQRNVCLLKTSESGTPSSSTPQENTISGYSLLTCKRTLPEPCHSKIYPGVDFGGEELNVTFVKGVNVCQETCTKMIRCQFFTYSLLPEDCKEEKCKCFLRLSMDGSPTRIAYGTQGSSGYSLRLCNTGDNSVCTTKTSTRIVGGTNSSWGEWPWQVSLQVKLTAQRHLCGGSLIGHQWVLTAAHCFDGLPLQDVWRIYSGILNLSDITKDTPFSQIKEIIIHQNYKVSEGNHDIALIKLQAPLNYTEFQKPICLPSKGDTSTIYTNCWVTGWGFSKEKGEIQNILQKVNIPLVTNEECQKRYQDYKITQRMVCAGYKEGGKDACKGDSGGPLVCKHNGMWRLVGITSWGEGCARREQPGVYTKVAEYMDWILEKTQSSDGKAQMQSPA
T2 sequence (P14272 391-638 limits assumed): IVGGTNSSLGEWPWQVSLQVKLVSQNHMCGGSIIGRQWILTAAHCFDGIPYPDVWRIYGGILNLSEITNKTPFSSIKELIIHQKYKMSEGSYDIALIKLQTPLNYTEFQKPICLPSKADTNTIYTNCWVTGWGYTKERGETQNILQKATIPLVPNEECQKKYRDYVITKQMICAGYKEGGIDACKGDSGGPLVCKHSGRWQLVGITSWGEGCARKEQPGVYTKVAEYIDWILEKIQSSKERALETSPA

Row | Fragments (human plasma) ([1]; Table 25a) | F (Kivar/KiWT) (human plasma Kallikrein; [2]) | Ki (human plasma Kallikrein; [3]) [nM] | Compound | other results
1 | -R, -FPYR | 151 | 63.5 | CC(=O)N[C@H]1CSCc2cc3cc(c2)CSC[C@H](NC(=O)[C@H](CCCNC(=N)N)NC(=O)[C@H](Cc2ccc(O)cc2)NC(=O)[C@@H]2CCCN2C(=O)[C@H](Cc2ccccc2)NC(=O)[C@H](CO)NC1=O)C(=O)N[C@@H](CC(C)C)C(=O)N(C)[C@@H](Cc1cnc[nH]1)C(=O)N[C@@H](CCC(N)=O)C(=O)N[C@@H](CC(=O)O)C(=O)N[C@@H](CC(C)C)C(=O)N[C@H](C(N)=O)CSC3 [Ac-(06-34-18) Phe2 Tyr4 NMe-His7] (Ac-CSFPYRCL[NMeH]QDLC-NH2; linker 1-7-13 via TBMB) | –
2 | – | – | – | CC(=O)N[C@H]1CSCc2cc3cc(c2)CSC[C@H](NC(=O)[C@H](CCCCNC(=N)N)NC(=O)[C@H](Cc2ccc(O)cc2)NC(=O)[C@@H]2CCN2C(=O)[C@H](Cc2ccccc2)NC(=O)[C@H](CO)NC1=O)C(=O)N[C@@H](CC(C)C)C(=O)N[C@@H](Cc1c[nH]cn1)C(=O)N[C@@H](CCC(N)=O)C(=O)N[C@@H](CC(=O)O)C(=O)N[C@@H](CC(C)C)C(=O)N[C@H](C(N)=O)CSC3 [Ac-(06-34-18) Phe2 Aze3 Tyr4 HomoArg5] (Ac-CSF[Aze]Y[hArg]CLHQDLC-NH2; linker 1-7-13 via TBMB) | Ki (rat plasma Kallikrein): 3 nM
3 | -R, -FPYR | 149 | 62.8 | CC(=O)N[C@H]1CSCc2cc3cc(c2)CSC[C@H](NC(=O)[C@H](CCCNC(=N)N)NC(=O)[C@H](Cc2ccc(O)cc2)NC(=O)[C@@H]2CCCN2C(=O)[C@H](Cc2ccccc2)NC(=O)[C@H](CO)NC1=O)C(=O)N[C@@H](CC(C)C)C(=O)N[C@@H](Cc1c[nH]cn1)C(=O)N(C)[C@@H](CCC(N)=O)C(=O)N[C@@H](CC(=O)O)C(=O)N[C@@H](CC(C)C)C(=O)N[C@H](C(N)=O)CSC3 [Ac-(06-34-18) Phe2 Tyr4 NMe-Gln8] (Ac-CSFPYRCLH[NMeQ]DLC-NH2; linker 1-7-13 via TBMB) | –
4 | -R, -FPYR | 105 | 44.3 | CC(=O)N[C@H]1CSCc2cc3cc(c2)CSC[C@H](NC(=O)[C@H](CCCNC(=N)N)NC(=O)[C@H](Cc2ccc(O)cc2)NC(=O)[C@@H]2CCCN2C(=O)[C@H](Cc2ccccc2)NC(=O)[C@H](CO)NC1=O)C(=O)N[C@@H](CC(C)C)C(=O)N[C@@H](Cc1c[nH]cn1)C(=O)N[C@@H](CCC(N)=O)C(=O)N(C)[C@@H](CC(=O)O)C(=O)N[C@@H](CC(C)C)C(=O)N[C@H](C(N)=O)CSC3 [Ac-(06-34-18) Phe2 Tyr4 NMe-Asp9] (Ac-CSFPYRCLHQ[NMeD]LC-NH2; linker 1-7-13 via TBMB) | –
5 | – | – | – | CC(=O)N[C@H]1CSCc2cc3cc(c2)CSC[C@H](NC(=O)[C@H](CCCNC(=N)N)N(C)C(=O)[C@H](Cc2ccc(O)cc2)NC(=O)[C@@H]2CCN2C(=O)[C@H](Cc2ccccc2)NC(=O)[C@H](CO)NC1=O)C(=O)N[C@@H](CC(C)C)C(=O)N[C@@H](Cc1c[nH]cn1)C(=O)N[C@@H](CCC(N)=O)C(=O)N[C@@H](CC(=O)O)C(=O)N[C@@H](CC(C)C)C(=O)N[C@H](C(N)=O)CSC3 [Ac-(06-34-18) Phe2 Aze3Tyr4 NMeArg5] (Ac-CSF[Aze]Y[NMeR]CLHQDLC-NH2; linker 1-7-13 via TBMB) | Ki (rat plasma Kallikrein): 31.4 nM
6 | – | – | – | CC(=O)N[C@H]1CSCc2cc3cc(c2)CSC[C@H](NC(=O)[C@H](CCCNC(=N)N)NC(=O)[C@H](Cc2ccc(O)cc2)NC(=O)[C@@H]2CCCN2C(=O)[C@H](Cc2ccccc2)NC(=O)[C@H](CO)NC1=O)C(=O)N[C@@H](CC(C)C)C(=O)N[C@@H](Cc1c[nH]cn1)C(=O)N[C@@H](CCC(N)=O)C(=O)N[C@@H](C)C(=O)N[C@@H](CC(C)C)C(=O)N[C@H](C(N)=O)CSC3 [Ac-(06-34-18) Phe2 Tyr4 Ala9] (Ac-CSFPYRCLHQALC-NH2; linker 1-7-13 via TBMB) | Fragments (human plasma) ([1]; Table 3a): -LHQDL, -R; Ki (human plasma Kallikrein; [4]): 1.58 nM; F (Kivar/KiWT) (human plasma Kallikrein; [5]): 4
7 | -R, -FPYR | 1396 | 586 | CC(=O)N[C@H]1CSCc2cc3cc(c2)CSC[C@H](NC(=O)[C@H](CCCNC(=N)N)NC(=O)[C@H](Cc2ccc(O)cc2)NC(=O)[C@@H]2CCCN2C(=O)[C@H](Cc2ccccc2)NC(=O)[C@H](CO)NC1=O)C(=O)N[C@@H](CC(C)C)C(=O)N[C@@H](Cc1c[nH]cn1)C(=O)N[C@@H](CCC(N)=O)C(=O)N[C@@H](CC(=O)O)C(=O)N(C)[C@@H](CC(C)C)C(=O)N[C@H](C(N)=O)CSC3 [Ac-(06-34-18) Phe2 Tyr4 NMe-Leu10] (Ac-CSFPYRCLHQD[NMeL]C-NH2; linker 1-7-13 via TBMB) | –
8 | -R, -FPYR | 137 | 57.4 | CC(=O)N[C@H]1CSCc2cc3cc(c2)CSC[C@H](NC(=O)[C@H](CCCNC(=N)N)NC(=O)[C@H](Cc2ccc(O)cc2)NC(=O)[C@@H]2CCCN2C(=O)[C@H](Cc2ccccc2)NC(=O)[C@H](CO)NC1=O)C(=O)N(C)[C@@H](CC(C)C)C(=O)N[C@@H](Cc1c[nH]cn1)C(=O)N[C@@H](CCC(N)=O)C(=O)N[C@@H](CC(=O)O)C(=O)N[C@@H](CC(C)C)C(=O)N[C@H](C(N)=O)CSC3 [Ac-(06-34-18) Phe2 Tyr4 NMe-Leu6] (Ac-CSFPYRC[NMeL]HQDLC-NH2; linker 1-7-13 via TBMB) | –
9 | – | – | – | CC(=O)N[C@H]1CSCc2cc3cc(c2)CSC[C@H](NC(=O)[C@H](Cc2ccc(NC(=N)N)cc2)NC(=O)[C@H](Cc2ccc(O)cc2)NC(=O)[C@@H]2CCN2C(=O)[C@H](Cc2ccccc2)NC(=O)[C@H](CO)NC1=O)C(=O)N[C@@H](CC(C)C)C(=O)N[C@@H](Cc1c[nH]cn1)C(=O)N[C@@H](CCC(N)=O)C(=O)N[C@@H](CC(=O)O)C(=O)N[C@@H](CC(C)C)C(=O)N[C@H](C(N)=O)CSC3 [Ac-(06-34-18) Phe2 Aze3Tyr4 4GuanPhe5] (Ac-CSF[Aze]Y[Phe(4-guanidino)]CLHQDLC-NH2; linker 1-7-13 via TBMB) | Ki (rat plasma Kallikrein): 1.2 nM
10 | – | – | – | CC(=O)N[C@H]1CSCc2cc3cc(c2)CSC[C@H](NC(=O)[C@H](CCCNC(=N)N)NC(=O)[C@H](Cc2ccc(O)cc2)NC(=O)[C@@H]2CCCN2C(=O)[C@H](Cc2ccccc2)NC(=O)[C@H](CO)NC1=O)C(=O)N[C@@H](CC(C)C)C(=O)N[C@@H](Cc1c[nH]cn1)C(=O)N[C@@H](CCC(N)=O)C(=O)N[C@@H](CC(=O)O)C(=O)N[C@@H](C)C(=O)N[C@H](C(N)=O)CSC3 [Ac-(06-34-18) Phe2 Tyr4 Ala10] (Ac-CSFPYRCLHQDAC-NH2; linker 1-7-13 via TBMB) | Fragments (human plasma) ([1]; Table 3a): -LHQ, -LHQDL, -R; Ki (human plasma Kallikrein; [4]): 13.5 nM; F (Kivar/KiWT) (human plasma Kallikrein; [5]): 32
11 | – | – | – | CC(=O)N[C@H]1CSCc2cc3cc(c2)CSC[C@H](NC(=O)[C@H](CCCNC(=N)N)NC(=O)[C@H](Cc2ccc(O)cc2)NC(=O)[C@@H]2CCCN2C(=O)[C@H](Cc2ccccc2)NC(=O)[C@H](CO)NC1=O)C(=O)N[C@@H](CC(C)C)C(=O)N[C@@H](Cc1c[nH]cn1)C(=O)N[C@@H](CCC(N)=O)C(=O)N[C@@H](CC(=O)O)C(=O)N[C@H](CC(C)C)C(=O)N[C@H](C(N)=O)CSC3 [Ac-(06-34-18) Phe2 Tyr4 D-Leu10] (Ac-CSFPYRCLHQD[dL]C-NH2; linker 1-7-13 via TBMB) | Fragments (human plasma) ([1]; Table 3b): -R, -FPYR; Ki (human plasma Kallikrein; Table 3b, D-amino acid scan in Loop2): 416 nM; F (Kivar/KiWT) (human plasma Kallikrein; Table 3b, ratio of Ki to wild type): 990
12 | – | – | – | CC(=O)N[C@H]1CSCc2cc3cc(c2)CSC[C@H](NC(=O)[C@H](CCCNC(=N)N)NC(=O)[C@H](Cc2ccc(O)cc2)NC(=O)[C@@H]2CCCN2C(=O)[C@H](Cc2ccccc2)NC(=O)[C@H](CO)NC1=O)C(=O)N[C@@H](CC(C)C)C(=O)N[C@@H](Cc1c[nH]cn1)C(=O)N[C@@H](C)C(=O)N[C@@H](CC(=O)O)C(=O)N[C@@H](CC(C)C)C(=O)N[C@H](C(N)=O)CSC3 [Ac-(06-34-18) Phe2 Tyr4 Ala8] (Ac-CSFPYRCLHADLC-NH2; linker 1-7-13 via TBMB) | Fragments (human plasma) ([1]; Table 3a): -LHQ, -R; Ki (human plasma Kallikrein; [4]): 1.74 nM; F (Kivar/KiWT) (human plasma Kallikrein; [5]): 4
